For experiment [1], the system named is PC3-CXCR4 cells. The experiment is described as follows: Cell-associated activity in PC3-CXCR4 cells. The experiment is classed as cell-based, human. Conditions: 1 h. How it is done: Maximum cell-associated activity was calculated by subtracting the cell uptake of the radioactive ligand at the highest non-radioactive ligand concentration of 10 µM (which we considered to be non-specific uptake/binding) from the cell uptake at the lowest non-radioactive ligand concentration of 10^−5 µM.

In experiment [2] the target is T1, CXCR4 (Homo sapiens, UniProt P61073).
T1 construct: expressed in transfected cells; host or cells: PC3 (human prostate cancer) cells stably transduced with CXCR4
T1 sequence (P61073 whole entry): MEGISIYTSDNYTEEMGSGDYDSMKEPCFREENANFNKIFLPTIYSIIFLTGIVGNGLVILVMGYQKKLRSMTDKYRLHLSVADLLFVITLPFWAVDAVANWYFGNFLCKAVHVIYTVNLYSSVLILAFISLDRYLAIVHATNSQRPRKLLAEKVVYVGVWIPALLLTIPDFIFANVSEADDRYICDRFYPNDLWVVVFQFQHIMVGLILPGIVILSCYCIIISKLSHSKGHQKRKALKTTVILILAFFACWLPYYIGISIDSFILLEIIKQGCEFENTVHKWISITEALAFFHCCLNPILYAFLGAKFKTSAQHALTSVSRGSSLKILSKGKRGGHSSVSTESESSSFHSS
The experiment is described as follows: Saturation binding assay in PC3-CXCR4 cells. How it is done:
To determine the dissociation constants, saturation binding assays were performed in the PC3-CXCR4 cells. The cells were plated as described above, and approximately 5 nM of the radioligand was added to each well. Then the corresponding non-radioactive ligand was added to give a final concentration in the range 0.001–10,000 nM. A total of eight concentrations were tested, and each concentration was tested in triplicate. The samples were washed and counted as described above. Non-specific binding was subtracted, and Kd values were determined by performing a nonlinear one site binding curve fit with equation y = (Bmax · x)/(Kd + x). Values are expressed as Kd ± standard deviation (Supplemental Data, Figure S8).

In experiment [3] the target is T1, CXCR4. Briefly: Competition binding assay vs [^18F]RPS-544 in PC3-CXCR4 cells. Conditions: approx. 5 pM [^18F]RPS-544; p = 0.85. As for the experimental part:
(§1) PC3-CXCR4 cells were plated in 12-well plates at a density of 500,000 cells per well and incubated for 48 h at 37 °C/5% CO2. Prior to the binding assay the cells were incubated in fresh media and 370–555 kBq of [^68Ga]Pentixafor or [^18F]RPS-544 was added to each well. The corresponding concentration of [^68Ga]Pentixafor in each well was 100 nM, and the concentration of [^18F]RPS-544 was approximately 5 pM. Then non-radioactive ligands were added to give a final ligand concentration in the range 0.001–10,000 nM. A total of eight concentrations were studied, and each concentration was tested in triplicate. The cells were incubated for 60 min at 37 °C/5% CO2. The media was removed under suction, the cells were washed with cold PBS 1X and detached and transferred to tubes for counting in 1 M NaOH. The cells were counted in a Wizard^2 Gamma Counter (PerkinElmer, Waltham, MA, USA). Non-specific binding was subtracted, and the IC50 values were determined by assuming a simple competitive binding interaction and fitting the data to a sigmoidal Hill plot in Origin 9.0 (OriginLab, Northampton, MA, USA). Potencies are expressed as IC50 ± standard deviation (Supplemental Data, Figure S7).

Experiment [4] addresses T1, CXCR4. The experiment is described as follows: Competition binding assay vs [^68Ga]Pentixafor in PC3-CXCR4 cells. As for the experimental part:
as §1

The structures appear in SMILES notation.

`FCCn1cc(-c2cc(CN3CCCNCCNCCCNCC3)ccc2CN2CCCNCCNCCCNCC2)nn1` [RPS-545]: the “Cell-Associated Activity” value in experiment [1] was 0.8 ± 0.1 %IA. Besides, the Kd in experiment [2] (saturation binding, PC3-CXCR4 cells) was determined as 515 ± 68 nM. In addition, the “Hill Slope, Saturation Binding Experiment” value in experiment [2] (value ± SD) stood at 2.01 ± 0.22. Further, in experiment [3], the “IC50 vs [^18F]RPS-544 compared with IC50 vs [^68Ga]Pentixafor” value is given as “not significantly different”. Moreover, the IC50 in experiment [4] (vs 100 nM [^68Ga]Pentixafor, PC3-CXCR4 cells, 60 min 37 °C) worked out at 398 ± 41 nM. In experiment [4] (vs [^68Ga]Pentixafor, value ± SD), the “Hill Slope, Competitive Binding Experiment” value was 1.75 ± 0.33.

For orientation: Kd means the constant that tells how readily two partners part at equilibrium. Lower therefore signals a tighter complex. For orientation: IC50 means the concentration needed to halve the response being measured. A higher IC50 goes with lower potency.

Values taken from paper PMC6514812, “[^18F]Fluoroethyltriazolyl Monocyclam Derivatives as Imaging Probes for the Chemokine Receptor CXCR4” (Molecules, 2019).
